These molecules were tested against PDE10A (Homo sapiens (Human), UniProt Q9Y233) (assay: PDE10A inhibition assay).
Type: biochemical
Experimental: Active PDE10A enzyme is prepared in a number of ways for use in PDE assays (Loughney, K. et al. Gene 1999, 234, 109-117; Fujishige, K. et al. Eur J. Biochem. 1999, 266, 1118-1127 and Soderling, S. et al. Proc. Natl. Acad. Sci. 1999, 96, 7071-7076). PDE10A can be expressed as full-length proteins or as truncated proteins, as long as they express the catalytic domain. PDE10A can be prepared in different cell types, for example insect cells or E. coli. An example of a method to obtain catalytically active PDE10A is as follows: The catalytic domain of human PDE10A (amino acids 440-779 from the sequence with accession number NP 006652) is amplified from total human brain total RNA by standard RT-PCR and is cloned into the BamH1 and Xho1 sites of the pET28a vector (Novagen). Expression in coli is performed according to standard protocols. Briefly, the expression plasmids are transformed into the BL21(DE3) E. coli strain, and 50 mL cultures inoculated with the cells allowed to grow to an OD600 of 0.4-0.6 before protein expression is induced with 0.5 mM IPTG. Following induction, the cells are incubated overnight at room temperature, after which the cells are collected by centrifugation. Cells expressing PDE10A are resuspended in 12 mL (50 mM TRIS-HCl-pH8.0, 1 mM MgCl2 and protease inhibitors). The cells are lysed by sonication, and after all cells are lysed, TritonX100 is added according to Novagen protocols.
A PDE10A assay may for example, be performed as follows: The assay is performed in 60 uL samples containing a fixed amount of the relevant PDE enzyme (sufficient to convert 20-25% of the cyclic nucleotide substrate); a buffer (50 mM HEPES7.6; 10 mM MgCl2; 0.02% Tween20), 0.1 mg/ml BSA, 225 pCi of ^3H-labelled cyclic nucleotide substrate, tritium labeled cAMP to a final concentration of 5 nM and varying amounts of inhibitors. Reactions are initiated by addition of the cyclic nucleotide substrate, and reactions are allowed to proceed for one hr at room temperature before being terminated through mixing with 15 uL 8 mg/mL yttrium silicate SPA beads (Amersham). The beads are allowed to settle for one hr in the dark before the plates are counted in a Wallac 1450 Microbeta counter. The measured signal can be converted to activity relative to an uninhibited control (100%) and IC50 values can be calculated using the Xlfit extension to EXCEL.

Chain of PDE10A (Q9Y233 716-1055): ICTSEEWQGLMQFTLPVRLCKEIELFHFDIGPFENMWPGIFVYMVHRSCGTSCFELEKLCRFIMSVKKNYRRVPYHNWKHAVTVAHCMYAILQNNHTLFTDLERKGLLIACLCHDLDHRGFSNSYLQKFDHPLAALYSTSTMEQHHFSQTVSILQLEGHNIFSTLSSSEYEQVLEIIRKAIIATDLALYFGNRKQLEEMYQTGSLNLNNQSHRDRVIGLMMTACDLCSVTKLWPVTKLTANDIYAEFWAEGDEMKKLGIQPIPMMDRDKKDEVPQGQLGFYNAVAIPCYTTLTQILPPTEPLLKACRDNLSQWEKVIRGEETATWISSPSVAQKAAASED

Structure (SMILES) | IC50
Cc1cccc2nc(/C=C/c3nc(-c4ccco4)cn3COCC[Si](C)(C)C)nn12 [2-{(E)-2-[4-Furan-2-yl-1-(2-trimethylsilanyl-ethoxymethyl)-1H-imidazol-2-yl]-vinyl}-5-methyl-[1,2,4]triazolo[1,5-a]pyridine] | 46 nM
COc1cccn2nc(CCc3nc(-c4cncs4)cn3C)nc12 [8-Methoxy-2-[2-(1-methyl-4-thiazol-5-yl-1H-imidazol-2-yl)-ethyl]-[1,2,4]triazolo[1,5-a]pyridine] | 36 nM
Cn1cc(-c2cccs2)nc1/C=C/c1nc2c(F)cccn2n1 [8-Fluoro-2-[(E)-2-(1-methyl-4-thiophen-2-yl-1H-imidazol-2-yl)-vinyl]-[1,2,4]triazolo[1,5-a]pyridine] | 100 nM
Cc1cccc2nc(CCc3nc(-c4cccs4)cn3C)nn12 [5-Methyl-2-[2-(1-methyl-4-thiophen-2-yl-1H-imidazol-2-yl)-ethyl]-[1,2,4]triazolo[1,5-a]pyridine] | 9.2 nM
Cc1cccc2nc(CCc3nc(-c4cccs4)cn3C[C@@H](O)CNCCO)nn12 [(S)-1-(2-Hydroxy-ethylamino)-3-{2-[2-(5-methyl-[1,2,4]triazolo[1,5-a]pyridin-2-yl)-ethyl]-4-thiophen-2-yl-imidazol-1-yl}-propan-2-ol] | 30 nM
Cc1cc(C)n2cc(/C=C/c3nc(-c4cccs4)cn3COCC[Si](C)(C)C)nc2n1 [5,7-Dimethyl-2-{(E)-2-[4-thiophen-2-yl-1-(2-trimethylsilanyl-ethoxymethyl)-1H-imidazol-2-yl]-vinyl}-imidazo[1,2-a]pyrimidine] | 81 nM
Cc1cc(C)n2cc(CCc3nc(-c4cccs4)cn3CC(C)C)nc2n1 [2-[2-(1-Isobutyl-4-thiophen-2-yl-1H-imidazol-2-yl)-ethyl]-5,7-dimethyl-imidazo[1,2-a]pyrimidine] | 12 nM
Cc1cc(C)n2cc(CCc3nc(-c4cccs4)cn3C3CCCC3)nc2n1 [2-[2-(1-Cyclopentyl-4-thiophen-2-yl-1H-imidazol-2-yl)-ethyl]-5,7-dimethyl-imidazo[1,2-a]pyrimidine] | 46 nM
CNCC[C@H](O)Cn1cc(-c2cccs2)nc1CCc1nc2cccc(C)n2n1 [(S)-4-Methylamino-1-{2-[2-(5-methyl-[1,2,4]triazolo[1,5-a]pyridin-2-yl)-ethyl]-4-thiophen-2-yl-imidazol-1-yl}-butan-2-ol] | 51 nM
Cc1cc(C)n2cc(/C=C/c3nc(-c4cnccn4)cn3C)nc2n1 [5,7-Dimethyl-2-[(E)-2-(1-methyl-4-pyrazin-2-yl-1H-imidazol-2-yl)-vinyl]-imidazo[1,2-a]pyrimidine] | 340 nM
Cc1cccn2nc(CCc3nc(-c4cccs4)cn3C)nc12 [8-Methyl-2-[2-(1-methyl-4-thiophen-2-yl-1H-imidazol-2-yl)-ethyl]-[1,2,4]triazolo[1,5-a]pyridine] | 15 nM
CNC[C@H](O)Cn1cc(-c2cccs2)nc1CCc1nc2cccc(C)n2n1 [(S)-1-Methylamino-3-{2-[2-(5-methyl-[1,2,4]triazolo[1,5-a]pyridin-2-yl)-ethyl]-4-thiophen-2-yl-imidazol-1-yl}-propan-2-ol] | 70 nM
COc1ccc(C)n2nc(CCc3nc(-c4ccc(C)o4)cn3C)nc12 [8-Methoxy-5-methyl-2-{2-[1-methyl-4-(5-methyl-furan-2-yl)-1H-imidazol-2-yl]-ethyl}-[1,2,4]triazolo[1,5-a]pyridine] | 20 nM
COc1cccn2nc(/C=C/c3nc(-c4ccsc4)cn3C)nc12 [8-Methoxy-2-[(E)-2-(1-methyl-4-thiophen-3-yl-1H-imidazol-2-yl)-vinyl]-[1,2,4]triazolo[1,5-a]pyridine] | 52 nM

Molecules with a lower IC50, results first:

IC50 | Structure (SMILES)
8.8 nM | Cc1cc(C)n2cc(CCc3nc(-c4cccs4)cn3[C@@H](C)CO)nc2n1 [(S)-2-{2-[2-(5,7-Dimethyl-imidazo[1,2-a]pyrimidin-2-yl)-ethyl]-4-thiophen-2-yl-imidazol-1-yl}-propan-1-ol]
7.5 nM | COCC(O)Cn1cc(-c2cccs2)nc1CCc1nc2cccc(C)n2n1 (stereo not shown) [1-Methoxy-3-{2-[2-(5-methyl-[1,2,4]triazolo[1,5-a]pyridin-2-yl)-ethyl]-4-thiophen-2-yl-imidazol-1-yl}-propan-2-ol]
6.9 nM | Cc1ncc(C)n2nc(CCc3nc(-c4cncs4)cn3C)nc12 [5,8-Dimethyl-2-[2-(1-methyl-4-thiazol-5-yl-1H-imidazol-2-yl)-ethyl]-[1,2,4]triazolo[1,5-a]pyrazine]
6.8 nM | Cc1cc(C)n2cc(CCc3nc(-c4cccs4)cn3CCC(C)C)nc2n1 [5,7-Dimethyl-2-{2-[1-(3-methyl-butyl)-4-thiophen-2-yl-1H-imidazol-2-yl]-ethyl}-imidazo[1,2-a]pyrimidine]
5.7 nM | Cc1cccc2nc(CCc3nc(-c4ccsc4)c[nH]3)nn12 [5-Methyl-2-[2-(4-thiophen-3-yl-1H-imidazol-2-yl)-ethyl]-[1,2,4]triazolo[1,5-a]pyridine]
4.2 nM | Cc1cc(C)n2nc(CCc3nc(-c4cccs4)cn3C)nc2n1 [5,7-Dimethyl-2-[2-(1-methyl-4-thiophen-2-yl-1H-imidazol-2-yl)-ethyl]-[1,2,4]triazolo[1,5-a]pyrimidine]
4.2 nM | Cc1ccc(-c2cn(C)c(CCc3nc4c(C)ccc(C)n4n3)n2)o1 [5,8-Dimethyl-2-{2-[1-methyl-4-(5-methyl-furan-2-yl)-1H-imidazol-2-yl]-ethyl}-[1,2,4]triazolo[1,5-a]pyridine]
4.1 nM | C#CCn1cc(-c2cccs2)nc1CCc1nc2c(OC)ccc(C)n2n1 [8-Methoxy-5-methyl-2-[2-(1-prop-2-ynyl-4-thiophen-2-yl-1H-imidazol-2-yl)-ethyl]-[1,2,4]triazolo[1,5-a]pyridine]
4 nM | COc1ccc(C)n2nc(CCc3nc(-c4ccoc4)cn3C)nc12 [2-[2-(4-Furan-3-yl-1-methyl-1H-imidazol-2-yl)-ethyl]-8-methoxy-5-methyl-[1,2,4]triazolo[1,5-a]pyridine]
3.4 nM | CCCn1cc(-c2cccs2)nc1CCc1cn2c(C)cc(C)nc2n1 [5,7-Dimethyl-2-[2-(1-propyl-4-thiophen-2-yl-1H-imidazol-2-yl)-ethyl]-imidazo[1,2-a]pyrimidine]
3.1 nM | COc1ccc(C)n2nc(CCc3nc(-c4cscc4C)cn3C)nc12 [8-Methoxy-5-methyl-2-{2-[1-methyl-4-(4-methyl-thiophen-3-yl)-1H-imidazol-2-yl]-ethyl}-[1,2,4]triazolo[1,5-a]pyridine]
1.5 nM | COc1ccc(C)n2nc(CCc3nc(-c4cccs4)cn3C)nc12 [8-Methoxy-5-methyl-2-[2-(1-methyl-4-thiophen-2-yl-1H-imidazol-2-yl)-ethyl]-[1,2,4]triazolo[1,5-a]pyridine]
1.29 nM | Cc1ncc(C)n2nc(CCc3nc(-c4cscn4)cn3C)nc12 [5,8-Dimethyl-2-[2-(1-methyl-4-thiazol-4-yl-1H-imidazol-2-yl)-ethyl]-[1,2,4]triazolo[1,5-a]pyrazine]
1 nM | Cc1ccc(C)n2nc(CCc3nc(-c4cccs4)cn3C)nc12 [5,8-Dimethyl-2-[2-(1-methyl-4-thiophen-2-yl-1H-imidazol-2-yl)-ethyl]-[1,2,4]triazolo[1,5-a]pyridine]
0.99 nM | Cc1cccn2nc(CCc3nc(-c4cccs4)c[nH]3)nc12 [8-Methyl-2-[2-(4-thiophen-2-yl-1H-imidazol-2-yl)-ethyl]-[1,2,4]triazolo[1,5-a]pyridine]
0.55 nM | Cc1ncc(C)n2nc(CCc3nc(-c4ccncc4)cn3C)nc12 [5,8-Dimethyl-2-[2-(1-methyl-4-pyridin-4-yl-1H-imidazol-2-yl)-ethyl]-[1,2,4]triazolo[1,5-a]pyrazine]
0.52 nM | Cc1ncc(C)n2nc(CCc3nc(-c4cnccn4)cn3C)nc12 [5,8-Dimethyl-2-[2-(1-methyl-4-pyrazin-2-yl-1H-imidazol-2-yl)-ethyl]-[1,2,4]triazolo[1,5-a]pyrazine]
0.44 nM | Cc1ncc(C)n2nc(CCc3nc(-c4cncnc4)cn3C)nc12 [5,8-Dimethyl-2-[2-(1-methyl-4-pyrimidin-5-yl-1H-imidazol-2-yl)-ethyl]-[1,2,4]triazolo[1,5-a]pyrazine]
0.4 nM | Cc1ccc(C)n2nc(CCc3nc(-c4cscn4)cn3C)nc12 [5,8-Dimethyl-2-[2-(1-methyl-4-thiazol-4-yl-1H-imidazol-2-yl)-ethyl]-[1,2,4]triazolo[1,5-a]pyridine]
0.39 nM | Cc1ncc(C)n2nc(CCc3nc(-c4cccs4)cn3C)nc12 [5,8-Dimethyl-2-[2-(1-methyl-4-thiophen-2-yl-1H-imidazol-2-yl)-ethyl]-[1,2,4]triazolo[1,5-a]pyrazine]
